In patent publication US6350767B1, “Compounds with growth hormone releasing properties” (Novo Nordisk A/S, priority 1995, dated 2002):
Structures can show the parent of a compound that is named as a salt.

Key:
carboxypeptidase Y and B = assay: Metabolic stability in carboxypeptidase mix (ESMS, SIM of the molecular ion); assay type: in vitro ADME; conditions: stability after 24 h at 37° C. in carboxypeptidase Y and B, 50 mM ammoniumacetate pH 4.5; enzyme:substrate approx. 1:5 (w/w)
Description: (§1) Compounds of formula I may be evaluated for their metabolic stability.
(§2) Compounds were dissolved at a concentration of 1 μg/μl in water. 25 μl of this solution is added to 175 μl of the respective enzyme-solution (resulting in an enzyme:substrate ratio (w/w) of approximately 1:5). The solution is left at 37° C. overnight. 10 μl of the various degradation solutions is analyzed against a corresponding zero-sample using flow injection electrospray mass spectrometry (ESMS) with selected ion monitoring of the molecular ion. If the signal has decreased more than 20% compared to the zero-sample, the remainder of the solution is analyzed by HPLC and mass spectrometry in order to identify the extent and site(s) of degradation precisely.
(§3) Several standard peptides (ACTH 4-10, Angiotensin 1-14 and Glucagon) have been included in the stability tests in order to verify the ability of the various solutions to degrade peptides.
(§4) Enzymes (trypsin, chymotrypsin, elastase aminopeptidase M and carboxypeptidase Y and B) were all purchased from Boehringer Mannheim GmbH (Mannheim, Germany)
Carboxypeptidase mix: carboxypeptidase Y and B in 50 mM ammoniumacetate pH 4.5 (all concentrations 0.025 μg/μl).
(§5) Quantification of the compounds (before and after degradation) was done on the API III instrument using single ion monitoring of the molecular ion in question with flow injection of the analyte. […]

[1] = tested on: trypsin, chymotrypsin and elastase; assay: Metabolic stability in pancreatic enzyme mix (ESMS, SIM of the molecular ion); assay type: in vitro ADME; conditions: stability after 24 h at 37° C. in trypsin, 100 mM ammoniumbicarbonate pH 8.0, enzyme:substrate approx. 1:5 (w/w)
Description: as §1, §2, §3, §4
Pancreatic enzyme mix: trypsin, chymotrypsin and elastase in 100 mM ammoniumbicarbonate pH 8.0 (all concentrations 0.025 μg/μl).
as §5

melting point [°C] | Compound | Carboxy-peptidase mix (carboxypeptidase Y and B) | Pan. enzyme mix [1]
– | Glucagon | − (Unstable (more than 20% decrease in SIM signal after 24 h in degradation solution)) | − (Unstable (more than 20% decrease in SIM signal after 24 h in degradation solution))
161 to 167 | Cc1noc([C@@H](Cc2ccccc2)NC(=O)C(Cc2ccc3ccccc3c2)NC(=O)/C=C/C(C)(C)N)n1 (stereo in doubt) (as salt: salt) | – | –
240 to 241 | Cc1noc([C@@H](Cc2ccccc2)NC(=O)[C@@H](Cc2ccc3ccccc3c2)NC(=O)c2cccc(CN)c2)n1 (as salt: salt) | – | –
198 to 200 | Cc1noc([C@@H](Cc2ccccc2)NC(=O)[C@@H](Cc2ccc3ccccc3c2)NC(=O)[C@@H]2CCCNC2)n1 (stereo in doubt) (as salt: salt) | – | –
238 to 241 | Cc1noc([C@@H](Cc2ccccc2)NC(=O)[C@@H](Cc2ccc3ccccc3c2)NC(=O)C2CCNCC2)n1 (stereo in doubt) (as salt: salt) | – | –
